Source: the supplement of paper PMC10307832

What was measured:
[1] = compound: C[C@@]1(C(=O)Nc2ccc(F)nc2)CCCN1c1nc(Nc2cc(C3CC3)n[nH]2)c2cccn2n1 + COc1cc2c(Oc3ccc(NC(=O)C4(C(=O)Nc5ccc(F)cc5)CC4)cc3F)ccnc2cc1OCCCN1CCOCC1 [Foretinib] (partner 0.25 µM); assay: relative viability (nuclei count vs DMSO), 5 days (fraction); higher = more cells survive
Procedure, shortened: (§1)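 Relative viability divides the nuclei count in treated wells by that in vehicle wells. Lung cancer cell lines were seeded in 1536-well plates, dosed by pin tool the next day, and fixed and stained after 5 days in one step with final 0.05% Triton X-100, 1% formaldehyde and 1 ug/ml Hoechst. Dosing was a single drug or a fixed anchor-drug dose plus five library-drug doses (not always all listed) in √10 steps, and values are medians of duplicate plates imaged at 4×.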

Motesanib + Navitoclax = compound: CC1(C)CNc2cc(NC(=O)c3cccnc3NCc3ccncc3)ccc21 [Motesanib] + CC1(C)CCC(c2ccc(Cl)cc2)=C(CN2CCN(c3ccc(C(=O)NS(=O)(=O)c4ccc(N[C@H](CCN5CCOCC5)CSc5ccccc5)c(S(=O)(=O)C(F)(F)F)c4)cc3)CC2)C1 [Navitoclax] (partner 0.5 µM); assay: as above
Procedure, shortened: as §1

Row | Cell Line | relative viability ([1]; first compound 0.04 µM) | relative viability ([1]; first compound 0.1265 µM) | relative viability ([1]; first compound 0.4 µM) | relative viability ([1]; first compound 1.265 µM) | relative viability (Motesanib + Navitoclax; first compound 0.01 µM) | relative viability (Motesanib + Navitoclax; first compound 0.03162 µM) | relative viability (Motesanib + Navitoclax; first compound 0.1 µM) | relative viability (Motesanib + Navitoclax; first compound 0.3162 µM) | relative viability (Motesanib + Navitoclax; first compound 1 µM)
1 | SK-MES-1 | 0.9 | 0.853 | 0.542 | 0.948 | 1.13 | 1.15 | 1.23 | 1.24 | 1.21
2 | HCC-366 | 0.957 | 0.922 | 0.9 | 1.07 | 0.917 | 0.975 | 0.972 | 0.998 | 1.19
3 | 201T | 0.747 | 0.629 | 0.353 | 0.573 | 1.2 | 1.21 | 1.21 | 1.19 | 1.2
4 | HCC-827 | 1.03 | 1.14 | 1.06 | 1.2 | 1.11 | 1.01 | 1.07 | 1.05 | 1.02
5 | NCI-H647 | 1.18 | 1.08 | 0.886 | 1.17 | 1.26 | 1.49 | 1.28 | 1.19 | 1.18
6 | NCI-H2023 | 0.488 | 0.475 | 0.36 | 0.279 | 0.949 | 0.916 | 1.02 | 1.02 | 0.98
7 | NCI-H520 | 1.01 | 0.612 | 0.796 | 0.768 | 1.12 | 0.982 | 1.1 | 1.03 | 1.04
8 | RERF-LC-KJ | 0.815 | 0.777 | 0.659 | 0.714 | 0.705 | 1.01 | 1.29 | 0.811 | 0.877
9 | A-427 | 1.19 | 0.988 | 0.785 | 1.15 | 1.01 | 0.989 | 1.06 | 1.02 | 1.02
10 | NCI-H441 | 0.631 | 0.46 | 0.599 | 0.707 | 0.706 | 0.729 | 0.627 | 0.641 | 0.796
11 | NCI-H1703 | 0.294 | 0.303 | 0.309 | 0.273 | 1.25 | 1.05 | 0.494 | 0.299 | 0.27
12 | NCI-H1792 | – | – | – | – | 0.612 | 0.605 | 0.584 | 0.578 | 0.703
13 | Calu-6 | 0.959 | 0.871 | 0.758 | 0.414 | 0.877 | 0.748 | 0.852 | 0.758 | 0.76
14 | SK-LU-1 | 0.782 | 0.546 | 0.602 | 0.575 | 0.611 | 0.695 | 0.925 | 0.919 | 1.13
15 | PC-3 [JPC-3] | 1.08 | 1.02 | 0.959 | 1.34 | 0.83 | 0.883 | 0.802 | 0.779 | 0.827
16 | EMC-BAC-2 | 0.849 | 0.721 | 0.327 | 0.574 | 1.18 | 1.15 | 1.22 | 1.19 | 1.13
17 | LK-2 | 0.731 | 0.945 | 0.671 | 0.979 | 0.915 | 0.877 | 0.811 | 0.911 | 0.894
18 | NCI-H2126 | 0.885 | 0.661 | 0.485 | 0.865 | 0.821 | 0.84 | 0.874 | 0.878 | 0.813
19 | NCI-H3122 | 0.978 | 0.937 | 0.942 | 0.893 | 0.937 | 1.04 | 0.981 | 1.06 | 1.04

Row | Cell Line | relative viability ([1]; first compound 0.04 µM) | relative viability ([1]; first compound 0.1265 µM) | relative viability ([1]; first compound 0.4 µM) | relative viability ([1]; first compound 1.265 µM) | relative viability (Motesanib + Navitoclax; first compound 0.01 µM) | relative viability (Motesanib + Navitoclax; first compound 0.03162 µM) | relative viability (Motesanib + Navitoclax; first compound 0.1 µM) | relative viability (Motesanib + Navitoclax; first compound 0.3162 µM) | relative viability (Motesanib + Navitoclax; first compound 1 µM)
20 | NCI-H1975 | 0.861 | 0.962 | 0.88 | 0.716 | 1.11 | 1.12 | 1.05 | 1.11 | 1.26
21 | NCI-H1944 | 0.764 | 0.676 | 0.496 | 0.649 | 1.06 | 1.03 | 1.07 | 1.04 | 1.15
22 | LU99A | 0.602 | 0.467 | 0.478 | 0.432 | 0.82 | 0.849 | 0.75 | 0.798 | 0.835
23 | SW 1573 | 0.744 | 0.826 | 0.494 | 0.659 | 0.902 | 0.994 | 0.824 | 1.1 | 1.06
24 | NCI-H2347 | 1.32 | 0.818 | 1.02 | 0.834 | 0.816 | 0.751 | 0.712 | 0.882 | 1.02
25 | NCI-H2009 | 1.23 | 1.25 | 1.1 | 1.14 | 1.12 | 1.19 | 1.15 | 1.21 | 1.18
26 | HCC-15 | 0.906 | 0.485 | 0.614 | 0.686 | 0.69 | 0.718 | 0.713 | 0.773 | 0.748
27 | HCC-44 | – | – | – | – | 0.986 | 0.96 | 0.994 | 1.04 | 0.997
28 | COR-L23 | 0.967 | 0.865 | 0.762 | 0.695 | 1.01 | 0.936 | 1.08 | 1.06 | 0.972
29 | HCC-78 | 0.505 | 0.323 | 0.347 | 0.421 | 0.817 | 0.862 | 0.825 | 0.818 | 0.947
30 | NCI-H1299 | 1.21 | 1.06 | 0.585 | 1.05 | 1.06 | 1.04 | 1.06 | 1.11 | 1.07
31 | NCI-H727 | 0.694 | 0.396 | 0.357 | 0.324 | 0.519 | 0.349 | 0.321 | 0.52 | 0.446
32 | NCI-H2087 | 0.812 | 0.801 | 0.705 | 0.72 | 0.92 | 1.14 | 0.997 | 0.902 | 1.03
33 | BEN | 0.918 | 0.649 | 0.678 | 0.536 | 0.0507 | 0.0585 | 0.0627 | 0.0938 | 0.0672
34 | LCLC-103H | 0.597 | 0.491 | 0.422 | 0.637 | – | – | – | – | –
35 | EKVX | 0.684 | 0.751 | 0.602 | 0.253 | 0.88 | 1.11 | 1.06 | 0.989 | 0.961
36 | LXF-289 | 0.949 | 0.945 | 0.937 | 0.991 | 0.923 | 0.957 | 0.931 | 0.955 | 0.951
37 | ABC-1 | 0.773 | 0.782 | 0.744 | 0.38 | – | – | – | – | –
